In patent US20100016313A1, “INTESTINAL ALKALINE PHOSPHATASE MODULATORS AND USES THEREOF” (Burnham Institute for Medical Research, priority 2008, published 2010):

Biological target: T1, human IAP (Homo sapiens, UniProt P09923)
T1 construct: made in house; host or cells: COS-1 cells, transient expression from pCMV-Script; conditioned serum-free medium used as enzyme stock
T1 sequence (P09923 20-503 limits assumed): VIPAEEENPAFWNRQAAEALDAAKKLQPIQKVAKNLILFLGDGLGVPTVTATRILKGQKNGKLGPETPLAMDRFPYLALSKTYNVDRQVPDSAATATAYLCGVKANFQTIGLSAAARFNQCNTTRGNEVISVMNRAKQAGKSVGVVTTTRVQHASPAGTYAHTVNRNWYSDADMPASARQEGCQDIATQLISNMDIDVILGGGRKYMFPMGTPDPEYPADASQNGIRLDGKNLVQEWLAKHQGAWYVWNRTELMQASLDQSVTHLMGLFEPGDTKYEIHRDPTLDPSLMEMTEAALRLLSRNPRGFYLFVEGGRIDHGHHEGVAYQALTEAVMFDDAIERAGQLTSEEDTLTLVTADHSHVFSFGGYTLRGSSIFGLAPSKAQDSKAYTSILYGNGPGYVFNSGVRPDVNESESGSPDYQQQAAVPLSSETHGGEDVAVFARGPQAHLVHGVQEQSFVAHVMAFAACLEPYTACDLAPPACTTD
Assay: IAP assay using CDP-Star (chemiluminescent, dose response)
Assay type: biochemical
Details: IAP modulators, Tables A-H, positive = inhibitor; for IC50: negative Hill coefficient = activator; for n (Hill coefficient): negative = activator
Excerpt: An expression vector pCMV-Script containing cDNA for human IAP, TNAP, PLAP, GCAP, mouse TNAP, dIAP, EAP or gIAP in secreted form (FLAG-tagged) is transfected into COS-1 cells for transient expression using a standard electroporation method. The GPI anchoring site is replaced by a FLAG sequence to make the proteins secreted into the media as well as to test their kinetics in a form immobilized by anti-FLAG antibody (Narisawa, et al, 2007). Medium is changed to serum free medium Opti-MEM (Invitrogen) 24 h later, and media containing secreted proteins was collected 66 hr after electroporation. Conditioned medium filtered by a 2 μm cellulose acetate membrane is supplemented with 0.1% BSA, aliquotted and stored at −80° C.
Human IAP is produced on a large scale to be used in the primary high throughput screening. For a maximum of 200,000 wells including a blank and negative control in each plate, approximately 1600 ml of the recombinant human IAP working solution (8 μl/well×200,000) is used. The working solution is a 1:80 dilution of the stock solution that has AP activity showing ΔOD405 (velocity) ˜300 in 5 min pNPP calorimetric assay. Therefore a minimum of 20 ml of the stock solution (1600÷80) is needed. An enzyme stock is prepared from ten 15 cm φ plates of COS-1 cells using 100 μg plasmid DNA [ten plates×(10 μg DNA/1×10^7 cells per 15 cm φ plate)].
Compound aliquots (4 μL at […] in 10% DMSO) are added to 8 μL of human IAP working solution of a the human IAP stock solution diluted 1:80 in assay buffer (250 mM DEA, pH 9.8, −2.5 mM MgCl2, −0.05 μM ZnCl2). The solution of substrate CDP-Star, disodium 2-chloro-5-(4-methoxyspiro{1,2-dioxetane-3,2′(5′-chloro)-tricyclo[3.3.1.1]3,7 decan}-4-yl)-1-phenyl phosphate (New England Biolabs), (8 μL of 125 μM in water) is added to each well. […] Dispensing of human IAP working solution and CDP-Star is processed using a WellMate bulk dispenser (Matrix). Plates (white 384-well small volume Greiner 784075) are incubated at room temperature for 30 min, and the luminescence signal is measured using a PerkinElmer EnVision multi-mode plate reader. L-Phenylalanine (1 mM final concentration) and 2% DMSO is utilized as an inhibition control and blank, respectively. Data analysis is processed using CBIS software (ChemInnovations, Inc).
The compound is diluted ([…] to 0.03 mM) and incubated with the human IAP enzyme for 30 min prior to addition of substrate. At the same time, human TNAP, human PLAP, human GCAP, mouse TNAP, mouse dIAP, mouse EAP and mouse gIAP is tested to determine enzyme specificity.

| SMILES | IC50 [µM] | n (Hill coefficient) |
| --- | --- | --- |
| Cc1ccc(Cl)c(N2C(=O)C(Cl)C(N3CCN(C)CC3)C2=O)c1Cl (stereo not drawn) [Compound H5, 3-chloro-1-(2,6-dichloro-3-methylphenyl)-4-(4-methylpiperazin-1-yl)pyrrolidine-2,5-dione] | > 100 | – |
| O=C1C2C3C=CC(C3)C2C(=O)N1c1nc(CCc2ccccc2)n[nH]1 (stereo not drawn) [Compound F10] | – | 0.871 |
| COc1cc(C)c(Cl)cc1S(=O)(=O)Nc1cccnc1 [Compound G4, 2-methoxy-4-methyl-5-chloro-N-(pyridin-3-yl)benzenesulfonamide] | > 100 | – |
| Cc1c(-c2ccccc2)n[nH]c1C(=O)O [Compound D3, 4-methyl-5-phenyl-1H-pyrazole-3-carboxylic acid] | > 100 | – |
| O=C(O)c1cc(-c2ccc(Cl)cc2)n[nH]1 [Compound A2, 5-(4-chlorophenyl)-1H-pyrazole-3-carboxylic acid] | > 100 | – |
| O=c1cc(CCO)c2c(-c3ccccc3)n[nH]c2o1 [Compound E7, 4-(2-hydroxyethyl)-3-phenylpyrano[2,3-c]pyrazol-6(1H)-one] | > 100 | – |
| CN(C(=O)COC(=O)c1cc(-c2ccc(Br)cc2)[nH]n1)C1CCCCC1 [Compound A11, 2-[cyclohexyl(methyl)amino]-2-oxoethyl 5-(4-bromophenyl)-1H-pyrazole-3-carboxylate] | > 100 | – |
| O=C1C2CC=CCC2C(=O)N1c1ncn[nH]1 (stereo not drawn) [Compound F4, 2-(1H-1,2,4-triazol-5-yl)-3a,4,7,7a-tetrahydro-1H-isoindole-1,3(2H)-dione] | 34.5 | −1.61 |
| O=C1C2CC=CCC2C(=O)N1c1nc(-c2ccco2)n[nH]1 (stereo not drawn) [Compound F6, 2-[3-(furan-2-yl)-1H-1,2,4-triazol-5-yl]-3a,4,7,7a-tetrahydro-1H-isoindole-1,3(2H)-dione] | 0.411 | 0.894 |
| O=C(CSc1nnc[nH]1)NCCOc1ccccc1 [Compound H1, 2-(4H-1,2,4-triazol-3-ylthio)-N-(2-phenoxyethyl)acetamide] | > 100 | – |
| CCOc1ccc(-c2cc(C(=O)O)[nH]n2)cc1 [Compound B9, 3-(4-ethoxyphenyl)-1H-pyrazole-5-carboxylic acid] | > 100 | – |
| Cn1ccnc1Cc1ncnc(Nc2ccccc2)n1 [Compound H3, 4-[(1-methyl-4H-imidazol-2-yl)methyl]-N-phenyl-1,3,5-triazin-2-amine] | 30.5 | −1.32 |
| COc1ccc(-c2cc(C(=O)O)n[nH]2)cc1 [Compound A3, 5-(4-methoxyphenyl)-1H-pyrazole-3-carboxylic acid] | > 100 | – |
| Cc1ccccc1S(=O)(=O)Nc1cc2ccccc2nc1Cl [Compound G6, N-(2-chloroquinolin-3-yl)-2-methylbenzenesulfonamide] | > 100 | – |
| COC(=O)c1cc(-c2ccc(C)cc2C)n[nH]1 [Compound B13, methyl 3-(2,4-dimethylphenyl)-1H-pyrazole-5-carboxylate] | 66.1 | −3.035 |
| CC(=O)Nc1nnc(SCc2ccc(Br)cc2)[nH]1 [Compound H2, N-[5-(4-bromobenzylthio)-4H-1,2,4-triazol-3-yl)acetamide] | 86.4 | −0.563 |
| COc1ccc(OC)c(S(=O)(=O)Nc2cnc3ccccc3c2)c1 [Compound G2, 2,5-dimethoxy-N-(quinolin-3-yl)benzenesulfonamide] | > 100 | – |
| Nc1nc(N2C(=O)C3CC=CCC3C2=O)nn1-c1ccccc1 (stereo not drawn) [Compound F12, 2-(5-amino-1-phenyl-1H-1,2,4-triazol-3-yl)-3a,4,7,7a-tetrahydro-1H-isoindole-1,3(2H)-dione] | > 100 | – |
| O=C(O)c1cc(-c2ccc(O)cc2)n[nH]1 [Compound B1, 3-(4-hydroxyphenyl)-1H-pyrazole-5-carboxylic acid] | 79.2 | 1.1 |

| SMILES | IC50 [µM] | n (Hill coefficient) |
| --- | --- | --- |
| Cn1nc(-c2ccc(F)cc2)cc1C(=O)O [Compound D1, 3-(4-fluorophenyl)-1-methyl 1H-pyrazole-5 carboxylic acid] | > 100 | – |
| O=C1C2CC=CCC2C(=O)N1c1nc(-c2cccnc2)n[nH]1 (stereo not drawn) [Compound F7, 2-[3-(pyridin-3-yl)-1H-1,2,4-triazol-5-yl)-3a,4,7,7a-tetrahydro-1H-isoindole-1,3(2H)-dione] | 1.77 | 0.927 |
| COc1cccc(-c2cc(C(=O)O)[nH]n2)c1 [Compound B5, 3-(3-methoxyphenyl)-1H-pyrazole-5-carboxylic acid] | > 100 | – |
| COC(=O)c1cc(-c2ccc3ccccc3c2)[nH]n1 [Compound C1, methyl 3-(nahthylen-2-yl)-1H-pyrazole-5-carboxylate] | > 100 | – |
| O=C(O)c1cc(-c2ccc(F)cc2)n[nH]1 [Compound B4, 3-(4-fluorophenyl)-1H-pyrazole-5-carboxylic acid] | > 100 | – |
| CCc1ccc(-c2cc(C(=O)O)[nH]n2)cc1 [Compound B6, 3-(4-ethylphenyl)-1H-pyrazole-5-carboxylic acid] | > 100 | – |
| O=C(O)c1cc(-c2ccc3c(c2)OCCO3)n[nH]1 [Compound B11, 3-(2,3-dihydrobenzo[b][1,4]dioxyin-6-yl)-1H-pyrazole-5-carboxylic acid] | > 100 | – |
| O=C1c2ccccc2C(=O)N1c1nc(Cc2ccccc2)n[nH]1 [Compound F11, 2-(3-benzyl-1H-1,2,4-triazol-5-yl)isoindoline-1,3-dione] | – | 0.5445 |
| CC(C)c1ccc(-c2cc(C(=O)O)[nH]n2)cc1 [Compound B3, 3-(4-isopropylphenyl)-1H-pyrazole-5-carboxylic acid] | 98.3 | −4.38 |
| CC(OC(=O)c1cc(-c2ccc(Br)cc2)[nH]n1)C(=O)NC(C)(C)C (stereo not drawn) [Compound A13, 1-(tert-butylamino)-l-oxopropan-2-yl 5-(4-bromophenyl)-1H-pyrazole-3-carboxylate] | 93.4 | −1 |
| COC(=O)c1cc(-c2ccc(Cl)cc2Cl)n[nH]1 [Compound B12, methyl 3-(2,4-dichlorophenyl)-1H-pyrazole-5-carboxylate] | 9.32 | −1.3 |
| COC(=O)c1cc(-c2ccc(OC)cc2)[nH]n1 [Compound B14, methyl 3-(4-methoxyphenyl)-1H-pyrazole-5-carboxylate] | > 100 | – |
| O=C(O)c1cc(-c2ccccc2Cl)[nH]n1 [Compound A1, 5-(2-chlorophenyl)-1H-pyrazole-3-carboxylic acid] | – | 0.9625 |
| CCOC(=O)c1[nH]nc2c1COc1ccccc1-2 [Compound E3, ethyl 2,4-dihydrochromeno[3,4-c]pyrazole-3-carboxylate] | > 100 | – |
| COc1ccc(Br)cc1S(=O)(=O)Nc1cnc2ccccc2c1 [Compound G1, 5-bromo-2-methoxy-N-(quinolin-3-yl)benzenesulfonamide] | – | 0.716 |
| COc1ccc(-c2nnc3oc(O)cc(C)c2-3)cc1 [Compound E5, 3-(4-methoxyphenyl)-4-methylpyrano[2,3-c]prazol-6-ol] | 21.1 | −1.89 |
| COC(=O)c1cc(-c2ccccc2)n[nH]1 [Compound A8, methyl 5-phenyl-1H-pyrazole-3-carboxylate] | > 100 | – |
| Cc1ccc(-c2cc(C(=O)O)[nH]n2)cc1 [Compound A4, 5-(4-methylphenyl)-1H-pyrazole-3-carboxylic acid] | > 100 | – |
